± gives the expanded uncertainty stated by the source.
Test: xn = mol fraction of the nth substance listed
Conditions: Liquid, Pycnometric method

CCCCBr [1-bromobutane] + O=C=O
mass density [kg/m3]
Conditions | 316.1 K | 317.9 K
7540 kPa, x1 = 0.1495 | – | 964 ± 4
7770 kPa, x1 = 0.1495 | – | 967 ± 4
7950 kPa, x1 = 0.0989 | – | 850 ± 4
7990 kPa, x1 = 0.1495 | – | 970 ± 4
8090 kPa, x1 = 0.0989 | – | 853 ± 4
8230 kPa, x1 = 0.0683 | – | 777 ± 4
8230 kPa, x1 = 0.1495 | – | 974 ± 4
8330 kPa, x1 = 0.0461 | – | 703 ± 4
8340 kPa, x1 = 0.0683 | – | 780 ± 4
8370 kPa, x1 = 0.0461 | – | 705 ± 4
8370 kPa, x1 = 0.0989 | – | 859 ± 4
8450 kPa, x1 = 0.0245 | – | 491 ± 4
8450 kPa, x1 = 0.0461 | – | 712 ± 4
8450 kPa, x1 = 0.1495 | – | 977 ± 4
8460 kPa, x1 = 0.0245 | – | 493 ± 4
8480 kPa, x1 = 0.0245 | – | 499 ± 4
8490 kPa, x1 = 0.0683 | – | 786 ± 4
8500 kPa, x1 = 0.0245 | – | 506 ± 4
8510 kPa, x1 = 0.0245 | 593 ± 4 | –
8530 kPa, x1 = 0.0245 | – | 512 ± 4
8550 kPa, x1 = 0.0245 | – | 518 ± 4
8550 kPa, x1 = 0.0461 | – | 721 ± 4
8560 kPa, x1 = 0.0245 | 604 ± 4 | –
8570 kPa, x1 = 0.0245 | – | 525 ± 4
8600 kPa, x1 = 0.0245 | – | 532 ± 4
8620 kPa, x1 = 0.0245 | 615 ± 4 | 540 ± 4
8630 kPa, x1 = 0.0683 | – | 791 ± 4
8650 kPa, x1 = 0.0245 | – | 547 ± 4
8650 kPa, x1 = 0.0989 | – | 865 ± 4
8660 kPa, x1 = 0.1495 | – | 980 ± 4
8680 kPa, x1 = 0.0461 | – | 731 ± 4
8690 kPa, x1 = 0.0245 | 627 ± 4 | 555 ± 4
8720 kPa, x1 = 0.0245 | – | 563 ± 4
8770 kPa, x1 = 0.0245 | – | 571 ± 4
8780 kPa, x1 = 0.0245 | 639 ± 4 | –
8790 kPa, x1 = 0.0683 | – | 797 ± 4
8800 kPa, x1 = 0.0245 | – | 579 ± 4
8820 kPa, x1 = 0.0245 | – | 583 ± 4
8840 kPa, x1 = 0.0245 | – | 588 ± 4
8840 kPa, x1 = 0.0461 | – | 741 ± 4
8870 kPa, x1 = 0.0245 | – | 589 ± 4
8880 kPa, x1 = 0.0245 | 652 ± 4 | –
8890 kPa, x1 = 0.0245 | – | 597 ± 4
8920 kPa, x1 = 0.0245 | – | 601 ± 4
8940 kPa, x1 = 0.0683 | – | 802 ± 4
8950 kPa, x1 = 0.0989 | – | 871 ± 4
8960 kPa, x1 = 0.0245 | – | 608 ± 4
8960 kPa, x1 = 0.0461 | – | 748 ± 4
8990 kPa, x1 = 0.1495 | – | 984 ± 4
9000 kPa, x1 = 0.0245 | 665 ± 4 | –
9100 kPa, x1 = 0.0461 | – | 756 ± 4
9130 kPa, x1 = 0.0683 | – | 808 ± 4
9150 kPa, x1 = 0.0245 | 683 ± 4 | –
9250 kPa, x1 = 0.1495 | – | 987 ± 4
9270 kPa, x1 = 0.0461 | – | 764 ± 4
9300 kPa, x1 = 0.0989 | – | 877 ± 4
9330 kPa, x1 = 0.0683 | – | 814 ± 4
9340 kPa, x1 = 0.0245 | 694 ± 4 | –
9530 kPa, x1 = 0.0461 | – | 774 ± 4
9540 kPa, x1 = 0.0683 | – | 820 ± 4
9560 kPa, x1 = 0.0245 | 709 ± 4 | –
9580 kPa, x1 = 0.1495 | – | 990 ± 4
9670 kPa, x1 = 0.0989 | – | 884 ± 4
9770 kPa, x1 = 0.0683 | – | 826 ± 4
9810 kPa, x1 = 0.0461 | – | 785 ± 4
9850 kPa, x1 = 0.0245 | 725 ± 4 | –
9860 kPa, x1 = 0.1495 | – | 993 ± 4
10030 kPa, x1 = 0.0683 | – | 832 ± 4
10050 kPa, x1 = 0.0989 | – | 890 ± 4
10160 kPa, x1 = 0.0461 | – | 796 ± 4
10200 kPa, x1 = 0.0245 | 741 ± 4 | –
10240 kPa, x1 = 0.0245 | 743 ± 4 | –
10240 kPa, x1 = 0.1495 | – | 997 ± 4
10290 kPa, x1 = 0.0245 | 746 ± 4 | –
10310 kPa, x1 = 0.0683 | – | 838 ± 4
10350 kPa, x1 = 0.0245 | 750 ± 4 | –
10500 kPa, x1 = 0.0989 | – | 897 ± 4
10560 kPa, x1 = 0.1495 | – | 1000 ± 4
10590 kPa, x1 = 0.0461 | – | 809 ± 4
10630 kPa, x1 = 0.0683 | – | 845 ± 4
10930 kPa, x1 = 0.1495 | – | 1004 ± 4
10940 kPa, x1 = 0.0683 | – | 850 ± 4
10950 kPa, x1 = 0.0989 | – | 903 ± 4
11060 kPa, x1 = 0.0461 | – | 821 ± 4
11270 kPa, x1 = 0.1495 | – | 1007 ± 4
11310 kPa, x1 = 0.0683 | – | 858 ± 4
11470 kPa, x1 = 0.0989 | – | 910 ± 4
11600 kPa, x1 = 0.0461 | – | 833 ± 4
11690 kPa, x1 = 0.0683 | – | 863 ± 4
11700 kPa, x1 = 0.1495 | – | 1011 ± 4
11870 kPa, x1 = 0.0683 | – | 867 ± 4
11890 kPa, x1 = 0.0461 | – | 839 ± 4

— the NIST ThermoML archive (doi:10.1021/je900387e)
